Results on 4 molecules are retold here after patent publication US20170281732A1, “METHODS OF TREATING MILD BRAIN INJURY” (OXEIA BIOPHARMACEUTICALS, INC., priority 2014, published 2017).

For experiment [1] the following is noted: Matsumoto et al., 2001, Biochem. Biophys. Res. Commun. 284:655-659; cited from earlier work.
The next experiment concerns the target GHS-R (Homo sapiens, UniProt Q92847). Nature of the experiment: GHS-R antagonist activity in a cell based assay (Table 4, Exemplary GHS-R Modulating Compounds).
A further experiment concerns ischemic brain injury. As to conditions: in vivo; cited from earlier work.
In experiment [2] the test system is rat model of Parkinson's disease. As to conditions: cited from earlier work.
For experiment [3], the system named is oxidative burst in inflammatory cells following mBI. The experiment can be described thus: Oxidative burst in brain inflammatory cells following mBI (controlled cortical impact, DHR 123 flow cytometry). The experiment is classed as in vivo, C57/B6 mice. Particulars: subcutaneous ghrelin after mBI, compared to mBI without treatment; mice. Here is the method: Ghrelin variant administration reduces oxidative burst in inflammatory cells following mBI. Since no well-accepted animal model exists for concussions, a very small cerebral lesion that closely mimics mBI is used as a model of mBI. C57/B6 mice anesthetized with 5% isoflurane in oxygen (1.7 L/min) are given 0.3 mg/kg buprenorphine subcutaneously for analgesia prior to infliction of the mild brain injury. Anesthesia is assessed by paw pinch reflex. After creating a burr hole through the dura with a dental drill, a lesion using a controlled cortical impactor (CCI) is used to create injury 1 mm lateral and posterior to the bregma (5.0 mm/sec at a depth of 1.0 mm).
Animals are separated into three treatment groups: 1) Sham, 2) mBI, and 3) mBI plus ghrelin variant. A variety of doses can be tested depending upon the particular ghrelin variant. For example, 1 to 50 μg at one or more time points. As one example, treatment with subcutaneous ghrelin variant: 1 dose of 10 μg following mBI and additional dose 10 μg 1 hour after. Brain tissue is harvested at 2-8 hours, preferably about 6 hours post-injury. […] The fluorescence is then measured (AFU), higher intensity means greater oxidative burst and, therefore greater concentration or amount of ROS. […] Oxidative burst, which is a marker for ROS, can be measured by respiratory burst using flow cytometry (e.g., FL1 channel with 488-nm laser).

Broadly, the Ki is the equilibrium dissociation constant of an inhibitor or competing ligand from its target.

GHS-R, sequence (Q92847 whole entry): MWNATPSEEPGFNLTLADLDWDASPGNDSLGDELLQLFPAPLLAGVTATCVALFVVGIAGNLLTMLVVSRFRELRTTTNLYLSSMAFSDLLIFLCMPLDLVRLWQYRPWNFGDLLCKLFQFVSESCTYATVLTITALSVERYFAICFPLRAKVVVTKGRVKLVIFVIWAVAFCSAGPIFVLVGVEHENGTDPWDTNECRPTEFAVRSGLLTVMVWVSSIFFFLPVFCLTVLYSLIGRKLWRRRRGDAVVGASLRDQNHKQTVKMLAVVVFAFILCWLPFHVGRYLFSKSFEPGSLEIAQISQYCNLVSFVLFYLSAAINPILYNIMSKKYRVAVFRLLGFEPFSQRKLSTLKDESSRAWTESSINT

With `CCCCCCCCOC[C@H](NC(=O)CCCCN)C(=O)N[C@@H](Cc1ccccc1)C(=O)N[C@@H](CC(C)C)C(=O)NCCN` [5-aminopentanoyl-Ser(Octyl)-Phe-Leu-aminoethylamide], the ghrelin activity entry in experiment [1] is “potent ghrelin activity”.
In turn, `CCN(CC)CCCS(=O)(=O)N[C@H](CCc1ccccc1)c1nc(-c2ccc3nccn3c2)n[nH]1` [Compound 134, 3-Diethylamino-propane-1-sulfonic acid {(R)-1-[5-(1H-imidazo[1,2,-a]pyridin-6-yl)-2H-[1,2,4]triazol-3-yl]-3-phenyl-propyl}-amide] gave a Ki on GHS-R of 0.1 to 0.5 µM.
As for `C=CC[C@]12CCCN1C(=O)CNC2=O` [NNZ-2591, cyclo-L-glycyl-L-2-allylproline], the “neuroprotection after ischemic brain injury” value in the experiment on ischemic brain injury is reported as “neuroprotective”. Further, the motor function entry in experiment [2] is on record as “improves motor function”.
Turning to Ghrelin (GSSFLSPEHQRVQQRKESKKPPAKLQPR), the “Oxidative burst as quantified by Arbitrary Fluorescence Units (AFU)” value in experiment [3] is reported as “reduced the oxidative burst compared to mBI”.
